Source: PMC7345905, “Microbial Metabolite Urolithin B Inhibits Recombinant Human Monoamine Oxidase A Enzyme” (Metabolites, 2020)
Several values for one entry are separate records, joined by “and”; a condition that tells them apart may be missing. Identical values can stand only once.

How the values were obtained:
[1] = biological target: T1, human recombinant MAO-A (Homo sapiens, UniProt P21397); assay: MAO-Glo MAO-A inhibition assay; assay type: biochemical; settings: for MAO-A enzyme assay, Percent of control: N=1-3, listed as UroC
T1 construct: purchased Sigma-Aldrich
T1 sequence (P21397 1-527): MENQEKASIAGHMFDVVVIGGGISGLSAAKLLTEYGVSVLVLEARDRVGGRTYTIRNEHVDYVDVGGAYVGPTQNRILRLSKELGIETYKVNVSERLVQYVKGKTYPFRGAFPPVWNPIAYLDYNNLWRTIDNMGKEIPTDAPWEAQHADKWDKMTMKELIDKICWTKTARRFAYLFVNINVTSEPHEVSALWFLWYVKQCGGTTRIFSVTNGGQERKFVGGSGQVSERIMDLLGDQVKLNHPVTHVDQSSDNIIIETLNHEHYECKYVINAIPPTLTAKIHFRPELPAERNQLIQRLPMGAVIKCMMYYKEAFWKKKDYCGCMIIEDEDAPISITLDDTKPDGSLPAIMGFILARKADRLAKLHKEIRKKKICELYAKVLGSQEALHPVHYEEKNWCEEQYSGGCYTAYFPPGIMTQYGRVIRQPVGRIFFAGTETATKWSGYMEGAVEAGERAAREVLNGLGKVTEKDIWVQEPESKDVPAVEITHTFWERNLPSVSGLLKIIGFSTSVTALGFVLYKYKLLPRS

[2] = biological target: T1, human recombinant MAO-A; assay: MAO-A inhibition kinetics (variable substrate, Lineweaver–Burk plot); assay type: biochemical; set-up: Michaelis-Menten best-fit Vmax of MAO-A / Michaelis-Menten best-fit Vmax of MAO-A, Average: unit not given here; settings: for MAO-A assay signal (luminescence) / Transformed (reciprocal of MAO-A assay signal) / Michaelis-Menten best-fit Vmax of MAO-A: N=1-3
Protocol: MAO inhibition assays were performed using a MAO-Glo™ Assay kit (Promega) according to the manufacturer’s instructions. Briefly, 1 µg of human recombinant MAO-A and MAO-B enzyme isoforms were incubated with 160 and 16 µM of MAO substrates, respectively. […] The enzyme reaction was quenched by the addition of a luciferin detection reagent. […] An equal volume of dimethyl sulfoxide (0.1%) was added to the enzyme assay as a control. After 1 h of incubation, the luminescence was measured with a multimode microplate reader (Synergy HT, BioTek, Winooski, VT, USA) to determine the MAO enzyme activities. Initially, the inhibition potential of all the test compounds was evaluated at a concentration of 100 μM. The control reaction (with no inhibitor) with vehicle (DMSO 0.1%) was set at 100% activity. To determine IC50 of the test compounds, the dose dependent enzyme assays were performed. We used range of 0.1 to 50 μM concentrations for MAO-A and 0.1 to 200 μM concentrations of test compounds for the MAO-B enzyme activities. The type of enzyme inhibition was determined using variable concentrations of MAO-A substrate (10–360 µM) and MAO-B substrate (2–64 µM) for the respective enzyme assay. […] A Lineweaver–Burk double reciprocal plot was generated, and the mode of inhibition was determined by visual examination of the plot. The slope of the reciprocal plots was plotted against the inhibitor concentrations and determined the x-axis intercept that represented the inhibitor constant, Ki value.
All experiments were performed in triplicates and data are presented as mean ± standard error of the mean (SEM). The raw data are provided in Supplementary Data, Table S1. Enzyme kinetic data were analyzed using the Lineweaver–Burk plot. Statistical analysis was performed by Student’s t-test using GraphPad Prism Ver. 7.0 (GraphPad Prism Software Inc., San Diego, CA, USA).

[3] = UroC 15 µM, MAO-A substrate 10 uM
[4] = UroC 15 µM, MAO-A substrate 20 uM
[5] = UroC 15 µM, MAO-A substrate 40 uM
[6] = UroC 15 µM, MAO-A substrate 80 uM
[7] = UroC 15 µM, MAO-A substrate 160 uM
[8] = UroC 15 µM, MAO-A substrate 320 uM
[9] = UroC 60 µM, MAO-A substrate 10 uM
[10] = UroC 60 µM, MAO-A substrate 20 uM
[11] = UroC 60 µM, MAO-A substrate 40 uM
[12] = UroC 60 µM, MAO-A substrate 80 uM
[13] = UroC 60 µM, MAO-A substrate 160 uM
[14] = UroC 60 µM, MAO-A substrate 320 uM

## O=c1oc2cc(O)ccc2c2cc(O)c(O)cc12 [UC, urolithin-C]
[1]; 0–50 μM range, 160 µM substrate, 37 °C, 1 h, read-out: IC50 for MAO-A inhibitory activity
  IC50: 29.6 ± 1.8 µM
[1]; 0.1 µM
  MAO-A enzyme assay, Percent of control: 81.5785% of control and 83.2586% of control and 93.5154% of control
[1]; 0.5 µM
  MAO-A enzyme assay, Percent of control: 88.4995% of control and 88.7443% of control and 76.6736% of control
[1]; 1 µM
  MAO-A enzyme assay, Percent of control: 95.9222% of control and 92.2777% of control and 91.5145% of control
[1]; 5 µM
  MAO-A enzyme assay, Percent of control: 81.1285% of control and 71.4874% of control and 89.8253% of control
[1]; 10 µM
  MAO-A enzyme assay, Percent of control: 68.5636% of control and 69.9396% of control and 63.7804% of control
[1]; 25 µM
  MAO-A enzyme assay, Percent of control: 64.6896% of control and 58.5532% of control and 52.6539% of control
[1]; 50 µM
  MAO-A enzyme assay, Percent of control: 46.6421% of control and 44.3022% of control and 44.6686% of control
[1]; 100 µM (Figure 1A), 100 µM
  MAO-A enzyme assay, Percent of control: 11.345% of control and 12.577% of control and 11.352% of control
[1]; 100 µM, compared to vehicle
  inhibition of MAO-A enzyme activity: 88%
[2]; Lineweaver–Burk plot
  mode of inhibition of MAO-A: mixed mode of inhibition
[2]; [3]
  MAO-A assay signal (luminescence), Average: 1825
  MAO-A assay signal (luminescence): 1969 and 1718 and 1788
[2]; [4]
  MAO-A assay signal (luminescence), Average: 3291
  MAO-A assay signal (luminescence): 3541 and 3116 and 3216
[2]; [5]
  MAO-A assay signal (luminescence), Average: 5930.67
  MAO-A assay signal (luminescence): 6537 and 5679 and 5576
[2]; [6]
  MAO-A assay signal (luminescence), Average: 11350.3
  MAO-A assay signal (luminescence): 12348 and 10938 and 10765
[2]; [7]
  MAO-A assay signal (luminescence), Average: 17552.3
  MAO-A assay signal (luminescence): 18484 and 16889 and 17284
[2]; [8]
  MAO-A assay signal (luminescence), Average: 26455.7
  MAO-A assay signal (luminescence): 27220 and 26215 and 25932
[2]; UroC 15 µM, [1/S] 0.003125
  Transformed (reciprocal of MAO-A assay signal), Average: 3.78e-5
  Transformed (reciprocal of MAO-A assay signal): 3.674e-5 and 3.815e-5 and 3.856e-5
[2]; UroC 15 µM, [1/S] 0.00625
  Transformed (reciprocal of MAO-A assay signal), Average: 5.697e-5
  Transformed (reciprocal of MAO-A assay signal): 5.41e-5 and 5.921e-5 and 5.7857e-5
[2]; UroC 15 µM, [1/S] 0.0125
  Transformed (reciprocal of MAO-A assay signal), Average: 8.81e-5
  Transformed (reciprocal of MAO-A assay signal): 8.098e-5 and 9.142e-5 and 9.289e-5
[2]; UroC 15 µM, [1/S] 0.025
  Transformed (reciprocal of MAO-A assay signal), Average: 0.0001686
  Transformed (reciprocal of MAO-A assay signal): 0.000153 and 0.0001761 and 0.0001793
[2]; UroC 15 µM, [1/S] 0.05
  Transformed (reciprocal of MAO-A assay signal), Average: 0.0003039
  Transformed (reciprocal of MAO-A assay signal): 0.0002824 and 0.0003209 and 0.0003109
[2]; UroC 15 µM, [1/S] 0.1
  Transformed (reciprocal of MAO-A assay signal), Average: 0.0005479
  Transformed (reciprocal of MAO-A assay signal): 0.0005079 and 0.0005821 and 0.0005593
[2]; [9]
  MAO-A assay signal (luminescence), Average: 728
  MAO-A assay signal (luminescence): 706 and 793 and 685
[2]; [10]
  MAO-A assay signal (luminescence), Average: 1221
  MAO-A assay signal (luminescence): 1198 and 1213 and 1252
[2]; [11]
  MAO-A assay signal (luminescence), Average: 2305.33
  MAO-A assay signal (luminescence): 2310 and 2236 and 2370
[2]; [12]
  MAO-A assay signal (luminescence), Average: 4337.33
  MAO-A assay signal (luminescence): 4338 and 4394 and 4280
[2]; [13]
  MAO-A assay signal (luminescence), Average: 8033.33
  MAO-A assay signal (luminescence): 7953 and 7801 and 8346
[2]; [14]
  MAO-A assay signal (luminescence), Average: 14867.3
  MAO-A assay signal (luminescence): 14760 and 14941 and 14901
[2]; UroC 60 µM, [1/S] 0.003125
  Transformed (reciprocal of MAO-A assay signal), Average: 6.726e-5
  Transformed (reciprocal of MAO-A assay signal): 6.775e-5 and 6.693e-5 and 6.711e-5
[2]; UroC 60 µM, [1/S] 0.00625
  Transformed (reciprocal of MAO-A assay signal), Average: 0.0001245
  Transformed (reciprocal of MAO-A assay signal): 0.0001257 and 0.0001282 and 0.0001198
[2]; UroC 60 µM, [1/S] 0.0125
  Transformed (reciprocal of MAO-A assay signal), Average: 0.0002306
  Transformed (reciprocal of MAO-A assay signal): 0.0002305 and 0.0002276 and 0.0002336
[2]; UroC 60 µM, [1/S] 0.025
  Transformed (reciprocal of MAO-A assay signal), Average: 0.0004338
  Transformed (reciprocal of MAO-A assay signal): 0.0004329 and 0.0004472 and 0.0004219
[2]; UroC 60 µM, [1/S] 0.05
  Transformed (reciprocal of MAO-A assay signal), Average: 0.000819
  Transformed (reciprocal of MAO-A assay signal): 0.0008347 and 0.0008244 and 0.0007987
[2]; UroC 60 µM, [1/S] 0.1
  Transformed (reciprocal of MAO-A assay signal), Average: 0.001374
  Transformed (reciprocal of MAO-A assay signal): 0.001416 and 0.001261 and 0.00146
[2]; in presence of UroC 15 uM
  Michaelis-Menten best-fit Vmax of MAO-A, Average: 50085
  Michaelis-Menten best-fit Vmax of MAO-A: 47688 and 52039 and 50528
[2]; in presence of UroC 60 uM
  Michaelis-Menten best-fit Vmax of MAO-A, Average: 82346
  Michaelis-Menten best-fit Vmax of MAO-A: 96239 and 71263 and 79536
[2]; x-axis intercept of slopes of Lineweaver–Burk plots vs inhibitor concentration
  Ki: 44.3 µM
